# From patent US10512631B2, “Chalcone compounds” (Beth Israel Deaconess Medical Center, Inc., priority 2015, dated 2019)
# Columns and labels:
# Assay type in all cases: cell-based
# A549 cells = experiment: Invasion chambers (Transwell, Matrigel); details: serum chemoattractants, compared to untreated cells
# Protocol: The invasion of A549 cells was measured using Transwell chambers (Chemicon, Millipore, Calif.) according to the manufacturer's protocol. Briefly, A549 cells were treated with test compounds at 1 μM in 500 μl of DMEM medium without FBS for 24 hours. Medium in the upper chamber was serum-free while medium in the lower chamber contained 10% FBS as a source of chemoattractants. Cells that passed through the Matrigel-coated membrane were stained and photographed after 24 hours of incubation. Absorbance was measured at 562 nm by ELISA reader after dissolving of stained cells in 10% acetic acid.
# [1] = target: T1, ASK1 kinase and STMN1 interaction (Homo sapiens, UniProt Q99683); experiment: Immunoprecipitation of STMN1 / immunoblotting of P-ASK1; details: A549 cells, 1 μM, 30 minutes
# T1 construct: immunoblotting with antibody against P-ASK1 (Ser83) in A549 cells treated with 1 μM Compound 6 or DMSO; endogenous in cells; host or cells: A549 cells
# T1 sequence (Q99683 1-1374): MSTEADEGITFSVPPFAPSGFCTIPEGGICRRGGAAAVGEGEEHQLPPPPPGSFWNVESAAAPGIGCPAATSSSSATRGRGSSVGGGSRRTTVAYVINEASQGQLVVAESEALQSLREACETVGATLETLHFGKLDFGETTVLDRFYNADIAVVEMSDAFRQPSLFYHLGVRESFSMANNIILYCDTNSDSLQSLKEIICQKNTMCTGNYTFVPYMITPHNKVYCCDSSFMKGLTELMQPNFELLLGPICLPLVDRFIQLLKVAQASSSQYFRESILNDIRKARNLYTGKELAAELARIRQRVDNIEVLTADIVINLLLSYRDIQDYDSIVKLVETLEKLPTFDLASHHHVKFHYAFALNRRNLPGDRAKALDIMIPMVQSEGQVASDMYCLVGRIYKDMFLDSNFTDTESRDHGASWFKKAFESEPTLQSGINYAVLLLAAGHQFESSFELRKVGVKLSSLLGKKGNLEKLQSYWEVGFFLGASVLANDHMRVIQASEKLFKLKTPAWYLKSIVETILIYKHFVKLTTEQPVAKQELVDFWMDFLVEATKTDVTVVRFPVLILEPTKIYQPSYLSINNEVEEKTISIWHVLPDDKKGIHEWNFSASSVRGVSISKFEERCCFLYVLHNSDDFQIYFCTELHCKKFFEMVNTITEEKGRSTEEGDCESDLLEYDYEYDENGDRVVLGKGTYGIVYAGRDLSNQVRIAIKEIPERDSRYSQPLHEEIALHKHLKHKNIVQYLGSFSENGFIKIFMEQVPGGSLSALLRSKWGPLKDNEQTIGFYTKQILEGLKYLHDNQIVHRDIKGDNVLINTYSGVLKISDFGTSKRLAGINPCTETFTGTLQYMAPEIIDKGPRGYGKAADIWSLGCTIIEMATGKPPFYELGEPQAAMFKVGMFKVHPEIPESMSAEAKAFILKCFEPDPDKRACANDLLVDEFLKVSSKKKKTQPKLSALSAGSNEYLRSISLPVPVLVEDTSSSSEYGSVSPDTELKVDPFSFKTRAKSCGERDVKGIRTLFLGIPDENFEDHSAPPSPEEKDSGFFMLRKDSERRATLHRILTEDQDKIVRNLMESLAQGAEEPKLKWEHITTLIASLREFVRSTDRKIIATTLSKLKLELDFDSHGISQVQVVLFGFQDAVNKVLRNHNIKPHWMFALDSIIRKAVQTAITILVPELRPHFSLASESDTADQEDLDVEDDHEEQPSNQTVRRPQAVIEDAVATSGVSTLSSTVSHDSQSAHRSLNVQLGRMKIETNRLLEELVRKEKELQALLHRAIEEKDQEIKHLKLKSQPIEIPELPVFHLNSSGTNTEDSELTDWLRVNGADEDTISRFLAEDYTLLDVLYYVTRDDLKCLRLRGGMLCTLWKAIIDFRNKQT
# Protocol: Snap-frozen tissue samples were homogenized in ice-cold tissue lysis buffer (250 mM NaCl, 5 mM EDTA, 1% Triton X-100, 10 mM Tris-HCl; pH 7.5) containing the protease inhibitor cocktail Complete Mini (Roche). For co-immunoprecipitation, 200 μg protein lysates in RIPA buffer and the protease inhibitor cocktail were mixed with appropriate antibodies and 30 μl Protein A/G Plus-agarose beads (Santa Cruz Biotechnology) and then rotated for 1 hour at room temperature. The proteins were washed with RIPA buffer and eluted (95° C., 5 min in SDS loading buffer). Immunoblotting was performed as previously described in Chin et al., Proc. Natl. Acad. Sci. USA 2007, 104(12), 5109-14. Antibodies: P (Ser967)-ASK1 (Cell Signaling), Ask1 (Cell Signaling), P-STMN1 (Ser16) (Cell Signaling), STMN1 (Cell Signaling), 13-Actin (Sigma) were used at 1:1000 dilution.
# [2] = test system: PC3 (prostate cancer), A549 (lung cancer), CLR2119 and PAN02 (pancreatic cancer); experiment: Crystal violet staining, four cancer cell lines; details: range over four cell lines, 72 hours, 0.01-10 μM; highest efficiency in PC3; read-out: IC50, survival of cancer cells
# Protocol: PC3 (provided by Dr. Steven Balk's laboratory in Department of Medicine at Beth Israel Deaconess Medical Center), PANC02 and CRL2119 (provided by Dr. Pankaja Seth's laboratory in Department of Medicine at Beth Israel Deaconess Medical Center), A549 (ATCC) cell lines were cultured according to manufacturer's protocols. Briefly, PC3 were cultured in RPMI medium supplemented with 10% FBS (Atlanta). PANC-2, A549 and CRL2119 were cultured in DMEM High medium supplemented with 10% FBS (Atlanta). Human bronchial epithelial cells (BEC) were cultured in Airway Epithelial Cell Basal Medium with the Bronchial Epithelial cell growth kit (ATCC) according to manufacturer's protocol and used at passages 3-5.
# Cells were seeded at 5×10^3 concentration in 96 well plates and treated with test compounds or DMSO (0.001-10 μM) for 72 hours. Culture medium was removed and cells were stained with crystal violet solution (Sigma-Aldrich) for 15 minutes while shaking at room temperature. Crystal violet was then removed and cells were repeatedly washed in water. Attached cells stained with crystal violet were dried and then resuspended in 10% acetic acid. Absorbance was measured at 562 nm. The intensity of staining corresponded directly to the number of live cells.
# PC3 cells = experiment: RT2 profiler PCR array Human Cancer Pathway; details: after treatment vs DMSO
# Protocol: RT^2 profiler PCR array Human Cancer Pathway was purchased from SA Biosciences. RNA from PC3 cells treated with DMSO or Compound 6 were isolated and prepared for RT-PCR following manufacturer' protocol. Analysis was performed online using the software provided by SA Biosciences.
smiles,measurement,setting,value
"Cn1ccc2cc(/C=C3\CCc4ccc(F)cc4C3=O)ccc21 [Compound 6, (2E)-7-fluoro-2-[(1-methyl-1H-indol-5-yl)methylidene]-1,2,3,4-tetrahydronaphthalen-1-one]",invasion / migration through matrigel coated chambers,A549 cells,strongly inhibited invasion
same,ASK1 kinase and STMN1 interaction,[1],significantly blocked
same,IC50,[2],140 to 300 nM
same,adrenomedullin mRNA elevation,PC3 cells,more than 4 fold
same,stathmin (STMN1) mRNA elevation,PC3 cells,more than 4 fold
